In US11945796B2, “Substituted pyridine derivatives as SARM1 inhibitors” (Nura Bio, Inc., priority 2020, dated 2024):
pIC50: −log10 of the molar value. Where two headings read alike, the source gives them in different places.

Molecular target: T1, human SARM1(50-724) (Homo sapiens, UniProt Q6SZW1)
T1 construct: 40 nM human SARM1(50-724)
T1 sequence (Q6SZW1 50-724): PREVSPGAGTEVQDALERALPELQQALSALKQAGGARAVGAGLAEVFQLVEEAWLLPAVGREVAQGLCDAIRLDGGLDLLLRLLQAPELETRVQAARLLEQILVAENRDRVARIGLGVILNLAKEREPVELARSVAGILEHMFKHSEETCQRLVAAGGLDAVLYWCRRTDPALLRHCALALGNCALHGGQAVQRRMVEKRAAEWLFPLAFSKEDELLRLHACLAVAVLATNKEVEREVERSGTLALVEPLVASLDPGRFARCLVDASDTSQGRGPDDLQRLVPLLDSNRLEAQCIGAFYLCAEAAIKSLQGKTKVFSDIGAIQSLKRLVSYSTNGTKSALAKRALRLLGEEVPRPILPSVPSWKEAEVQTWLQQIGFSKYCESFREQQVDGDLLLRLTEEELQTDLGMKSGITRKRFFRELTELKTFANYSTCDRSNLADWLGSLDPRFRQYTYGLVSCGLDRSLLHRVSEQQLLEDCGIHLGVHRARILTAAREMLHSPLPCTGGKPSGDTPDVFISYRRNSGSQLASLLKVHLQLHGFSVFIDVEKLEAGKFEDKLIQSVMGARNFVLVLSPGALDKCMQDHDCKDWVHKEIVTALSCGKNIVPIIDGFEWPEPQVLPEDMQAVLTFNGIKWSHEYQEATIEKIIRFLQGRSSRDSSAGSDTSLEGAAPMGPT
Assay: SARM1 NADase biochemical assay (HPLC peak areas of NAD and NAM)
Conditions: for pIC50: dose-response, 1:3 serial dilution from 100 μM, 40 nM SARM1, 0.3 mM NMN, 20 μM NAD, 60 min rt
Experimental: The reaction was incubated at room temperature for 60 minutes and quenched with 20 μL of 0.4% formic acid. […] Total run time for each sample was 4 minutes. […] Samples were run at a flow rate of 0.8 mL/min at 55° C. Peak areas of NAD and NAM were determined using OpenLAB CDS (Chem Station edition) software. For dose-response, the compound was diluted serially 1:3 in DMSO and added to the reaction starting at a final compound concentration of 100 μM in 1% DMSO.

[1] = 50 μM compound, NAD peak area, read-out: Avg NAD % inhibition at 50 μM
[2] = 50 μM compound, NAM peak area, read-out: Avg NAM % inhibition at 50 μM
[3] = read-out: Avg NAD % inhibition at 50 μM
[4] = read-out: Avg NAM % inhibition at 50 μM

Question: “(R)-4-(1-(1-(2,2-Difluoroethyl)-1H-pyrazol-3-yl)ethyl-2,2,2-d3)pyridine and (S)-4-(1-(1-(2,2-Difluoroethyl)-1H-pyrazol-3-yl)ethyl-2,2,2-d3)pyridine [Example 114]” was tested. Which “Avg NAD % inhibition at 50 μM” value (50 μM compound, NAD peak area) did it give?
Answer: * (% Inhibition 0-50%)

Question: And the “Avg NAM % inhibition at 50 μM” value (50 μM compound, NAM peak area)?
Answer: * (% Inhibition 0-50%)

Question: How did the pIC50 turn out when `Fc1cn(Cc2ccncc2)nc1CC(F)(F)F` (racemic) [Example 104, 4-{[4-Fluoro-3-(2,2,2-trifluoroethyl)-1H-pyrazol-1-yl]methyl}pyridine] was run?
Answer: 5.00 to 6.00

Question: What does the source list for `O=S(=O)(Nc1ccn(Cc2ccncc2)n1)C(F)(F)F` [Example 88, 1,1,1-Trifluoro-N-(1-(pyridin-4-ylmethyl)-1H-pyrazol-3-yl)methanesulfonamide]?
Answer: inhibition at 50 µM [1]: 0 to 50%; inhibition at 50 µM [2]: 0 to 50%

Question: What does the source list for `O=C(Cc1ccccc1)Nc1ccn(Cc2ccncc2)n1` [Example 36, 2-Phenyl-N-(1-(pyridin-4-ylmethyl)-1H-pyrazol-3-yl)acetamide]?
Answer: inhibition at 50 µM [3]: 0 to 50%; inhibition at 50 µM [4]: 0 to 50%

Question: How did the pIC50 turn out when `Cc1cnccc1C(C)n1ccc(NCC(F)(F)F)n1` (racemic) [Example 14, (rac)-1-(1-(3-Methylpyridin-4-yl)ethyl)-N-(2,2,2-trifluoroethyl)-1H-pyrazol-3-amine] was run?
Answer: 5.00 to 6.00

Question: Which results are given for `CC(=O)Nc1ccn(Cc2ccncc2)n1` [Example 87, N-(1-(Pyridin-4-ylmethyl)-1H-pyrazol-3-yl)acetamide]?
Answer: inhibition at 50 µM [3]: 0 to 50%; inhibition at 50 µM [4]: 0 to 50%

Question: For `CN(c1ccn(Cc2ccncc2)n1)S(=O)(=O)c1cccc(F)c1` [Example 77, 3-Fluoro-N-methyl-N-(1-(pyridin-4-ylmethyl)-1H-pyrazol-3-yl)benzenesulfonamide], which inhibition at 50 µM [3] is on record?
Answer: 0 to 50%

Question: What about the inhibition at 50 µM [4] of the same compound?
Answer: 0 to 50%

Question: Which results are given for `O=C(Nc1ccn(Cc2ccncc2)n1)c1ccc(Cl)cc1` [Example 55, 4-Chloro-N-(1-(pyridin-4-ylmethyl)-1H-pyrazol-3-yl)benzamide]?
Answer: inhibition at 50 µM [3]: 51 to 100%; inhibition at 50 µM [4]: 51 to 100%

Question: With `CC(c1ccncc1)c1ccn(CC(F)(F)F)n1` (racemic) [Example 24, (rac)-4-(1-(1-(2,2,2-Trifluoroethyl)-1H-pyrazol-3-yl)ethyl)pyridine] as the compound, how does the pIC50 read?
Answer: > 6.00

Question: `CC(c1ccncc1)c1ccn(CC#N)n1` (single isomer, unassigned) [Example 12a] was tested. Which pIC50 did it give?
Answer: 5.00 to 6.00

Question: With “(R)-4-(1-(1-(2,2-Difluoroethyl)-1H-pyrazol-3-yl)ethyl)pyridine and (S)-4-(1-(1-(2,2-Difluoroethyl)-1H-pyrazol-3-yl)ethyl)pyridine [Example 111]” as the compound, how does the pIC50 read?
Answer: 5.00 to 6.00

Question: With `C[C@@H](c1ccncc1)n1ccc(NCC(F)(F)F)n1` [Example 2, (S)-1-(1-(Pyridin-4-yl)ethyl)-N-(2,2,2-trifluoroethyl)-1H-pyrazol-3-amine] as the compound, how does the pIC50 read?
Answer: > 6.00

Question: What does the source list for `O=C(Nc1ccn(Cc2ccncc2)n1)c1ccc2c(c1)CCO2` [Example 39, N-(1-(Pyridin-4-ylmethyl)-1H-pyrazol-3-yl)-2,3-dihydrobenzofuran-5-carboxamide]?
Answer: inhibition at 50 µM [1]: 0 to 50%; inhibition at 50 µM [2]: 0 to 50%

Question: With “(S)-2-((1-(1-(Pyridin-4-yl)ethyl)-1H-pyrazol-3-yl)amino)acetonitrile and (R)-2-((1-(1-(Pyridin-4-yl)ethyl)-1H-pyrazol-3-yl)amino)acetonitrile [Example 7]” as the compound, how does the pIC50 read?
Answer: 5.00 to 6.00

Question: Which inhibition at 50 µM [1] does the source give for `COc1cccc(C(=O)Nc2ccn(Cc3ccncc3)n2)c1` [Example 43, 3-Methoxy-N-(1-(pyridin-4-ylmethyl)-1H-pyrazol-3-yl)benzamide] here?
Answer: 0 to 50%

Question: And the inhibition at 50 µM [2]?
Answer: 0 to 50%

Question: For `c1cc(Cn2ccc(NCC3CC3)n2)ccn1` [Example 93, N-(Cyclopropylmethyl)-1-(pyridin-4-ylmethyl)-1H-pyrazol-3-amine], which inhibition at 50 µM [1] is on record?
Answer: 0 to 50%

Question: And the inhibition at 50 µM [2]?
Answer: 0 to 50%

Question: `O=C(Nc1ccn(Cc2ccncc2)n1)C(F)(F)F` [Example 68, 2,2,2-Trifluoro-N-(1-(pyridin-4-ylmethyl)-1H-pyrazol-3-yl)acetamide] was tested. Which pIC50 did it give?
Answer: 4.00 to 5.00

Question: How did the pIC50 turn out when `FC(F)(F)C(F)(F)c1ccn(Cc2ccncc2)n1` [Example 103, 4-{[3-(1,1,2,2,2-Pentafluoroethyl)-1H-pyrazol-1-yl]methyl}pyridine] was run?
Answer: 5.00 to 6.00

Question: How did the pIC50 turn out when `CC(c1ccncc1)n1ccc(NCC(F)F)n1` (racemic) [Example 101, (rac)-N-(2,2-Difluoroethyl)-1-(1-(pyridin-4-yl)ethyl)-1H-pyrazol-3-amine] was run?
Answer: > 6.00

Question: With `COc1ccc(S(=O)(=O)Nc2ccn(Cc3ccncc3)n2)cc1` [Example 74, 4-Methoxy-N-(1-(pyridin-4-ylmethyl)-1H-pyrazol-3-yl)benzenesulfonamide] as the compound, how does the pIC50 read?
Answer: 5.00 to 6.00

Question: How did the inhibition at 50 µM [1] turn out when `O=C(Nc1ccn(Cc2ccncc2)n1)c1ccc(C(F)(F)F)cc1` [Example 57, N-(1-(Pyridin-4-ylmethyl)-1H-pyrazol-3-yl)-4-(trifluoromethyl)benzamide] was run?
Answer: 0 to 50%

Question: What about the inhibition at 50 µM [2] of the same compound?
Answer: 0 to 50%

Question: `CC(c1ccncc1)n1ccc(Nc2nccs2)n1` (racemic) [Example 1, (rac)-N-(1-(1-(Pyridin-4-yl)ethyl)-1H-pyrazol-3-yl)thiazol-2-amine] was tested. Which pIC50 did it give?
Answer: > 6.00

Question: How did the inhibition at 50 µM [3] turn out when `N#Cc1ccccc1C(=O)Nc1ccn(Cc2ccncc2)n1` [Example 51, 2-Cyano-N-(1-(pyridin-4-ylmethyl)-1H-pyrazol-3-yl)benzamide] was run?
Answer: 0 to 50%

Question: And the inhibition at 50 µM [4]?
Answer: 0 to 50%

Question: Which inhibition at 50 µM [1] does the source give for `Cc1cccc(C(=O)Nc2ccn(Cc3ccncc3)n2)c1` [Example 49, 3-Methyl-N-(1-(pyridin-4-ylmethyl)-1H-pyrazol-3-yl)benzamide] here?
Answer: 0 to 50%

Question: And the inhibition at 50 µM [2]?
Answer: 0 to 50%

Question: With `N#CCn1ccc(Cc2ccncc2)n1` [Example 9, 2-(3-(Pyridin-4-ylmethyl)-1H-pyrazol-1-yl)acetonitrile] as the compound, how does the pIC50 read?
Answer: 5.00 to 6.00

Question: Which inhibition at 50 µM [1] does the source give for `O=C(Nc1ccn(Cc2ccncc2)n1)c1ccccc1C(F)(F)F` [Example 56, N-(1-(Pyridin-4-ylmethyl)-1H-pyrazol-3-yl)-2-(trifluoromethyl)benzamide] here?
Answer: 0 to 50%

Question: And the inhibition at 50 µM [2]?
Answer: 0 to 50%

Question: `CC(C)Cn1ccc(C(C)c2ccncc2)n1` (racemic) [Example 11, (rac)-4-(1-(1-Isobutyl-1H-pyrazol-3-yl)ethyl)pyridine] was tested. Which pIC50 did it give?
Answer: 5.00 to 6.00

Question: What does the source list for `O=C(Nc1ccn(Cc2ccncc2)n1)c1cccnc1` [Example 62, N-(1-(Pyridin-4-ylmethyl)-1H-pyrazol-3-yl)nicotinamide]?
Answer: inhibition at 50 µM [3]: 0 to 50%; inhibition at 50 µM [4]: 0 to 50%

Question: `O=C(Nc1ccn(Cc2ccncc2)n1)c1cccc(F)c1` [Example 59, 3-Fluoro-N-(1-(pyridin-4-ylmethyl)-1H-pyrazol-3-yl)benzamide] was tested. Which inhibition at 50 µM [1] did it give?
Answer: 0 to 50%

Question: And the inhibition at 50 µM [2]?
Answer: 0 to 50%

Question: How did the pIC50 turn out when “(R)-2-((1-(1-(Pyridin-4-yl)ethyl)-1H-pyrazol-3-yl)amino)acetonitrile and (S)-2-((1-(1-(pyridin-4-yl)ethyl)-1H-pyrazol-3-yl)amino)acetonitrile [Example 6]” was run?
Answer: 5.00 to 6.00

Question: `O=C(Nc1ccn(Cc2ccncc2)n1)C(C(F)(F)F)C(F)(F)F` [Example 15, 3,3,3-trifluoro-N-(1-(pyridin-4-ylmethyl)-1H-pyrazol-3-yl)-2-(trifluoromethyl)propanamide] was tested. Which pIC50 did it give?
Answer: 5.00 to 6.00

Question: How did the inhibition at 50 µM [3] turn out when `CCNc1ccn(Cc2ccncc2)n1` [Example 85, N-Ethyl-1-(pyridin-4-ylmethyl)-1H-pyrazol-3-amine] was run?
Answer: 0 to 50%

Question: What about the inhibition at 50 µM [4] of the same compound?
Answer: 0 to 50%

Question: Which inhibition at 50 µM [3] does the source give for `FCCNc1ccn(Cc2ccncc2)n1` [Example 96, N-(2-Fluoroethyl)-1-(pyridin-4-ylmethyl)-1H-pyrazol-3-amine] here?
Answer: 51 to 100%

Question: What about the inhibition at 50 µM [4] of the same compound?
Answer: 51 to 100%

Question: How did the pIC50 turn out when `[2H]C([2H])([2H])C(c1ccncc1)c1ccn(CC(F)(F)F)n1` (racemic) [Example 21, (rac)-4-(1-(1-(2,2,2-Trifluoroethyl)-1H-pyrazol-3-yl)ethyl-2,2,2-d3)pyridine] was run?
Answer: 5.00 to 6.00

Question: How did the pIC50 turn out when “(S)-2-(1-(1-(Pyridin-4-yl)ethyl)-1H-pyrazol-3-yl)acetonitrile and (R)-2-(1-(1-(Pyridin-4-yl)ethyl)-1H-pyrazol-3-yl)acetonitrile [Example 27]” was run?
Answer: 5.00 to 6.00

Question: How did the inhibition at 50 µM [1] turn out when `O=S(=O)(Nc1ccn(Cc2ccncc2)n1)c1cccc(F)c1` [Example 76, 3-Fluoro-N-(1-(pyridin-4-ylmethyl)-1H-pyrazol-3-yl)benzenesulfonamide] was run?
Answer: 0 to 50%

Question: And the inhibition at 50 µM [2]?
Answer: 0 to 50%

Question: What about the pIC50 of the same compound?
Answer: 5.00 to 6.00

Question: `Cc1ccccc1C(=O)Nc1ccn(Cc2ccncc2)n1` [Example 48, 2-Methyl-N-(1-(pyridin-4-ylmethyl)-1H-pyrazol-3-yl)benzamide] was tested. Which inhibition at 50 µM [1] did it give?
Answer: 0 to 50%

Question: And the inhibition at 50 µM [2]?
Answer: 0 to 50%
